Tests used:
Escherichia coli 25922 = test: Sensitization to rifampin, checkerboard method; assay type: cell-based; settings: adjuvant at 8 µg/mL (10 µM for C14(ω5)OOc10O), Ec 25922, LB
Procedure: Bacterial sensitization: Sensitization to antibiotics was determined using the checkerboard method in presence of sub-MIC OAC (2.5, 5, and 10 μM), as described. The synergistic effect of the combinations was expressed in terms of the Sensitization Factor (SF), where SF = (MIC antibiotic alone)/(MIC antibiotic upon combination). Data were obtained from three independent assays performed in duplicate.
Figure 4 Hydrophobicity dependence of antibiotics potentiation by lipopeptide analogs. Sensitization of GNB to rifampin and erythromycin (upper and lower panel, respectively) was assessed by MIC experiments performed in LB medium, in presence or absence of an OAC analog whose A2 position was gradually shortened (from c10 to c6). Pseudomonas aeruginosa 27853 (Pa, blue), Klebsiella pneumoniae 1287 (Kp, green), Escherichia coli 25922 (Ec, red), and Acinetobacter baumannii 19606 (Ab, black).

E. coli UPEC CFT073 = test: Urinary tract infection model; assay type: in vivo, mouse
Procedure: Animals: All animal studies were performed using male ICR mice (25 ± 2 gr). The Technion Animal Care and Use committee approved all procedures, care, and handling of animals. Ethics approval codes: IL0800519, IL0640421, IL0550618, IL1811217.
For efficacy assessments, three infection models were used including one with topical treatment and two with systemic treatment. • Excisional skin wound infection model: mice were anesthetized by intraperitoneal administration of a mixture of ketamine 100 mg/kg and xylazine 5 mg/kg in PBS and their backs shaved with electric clippers. The following day mice were similarly anesthetized and were administrated (S.C) 0.05 mg/kg buprenorphine (for pain relief). A 5 mm diameter piece of skin was removed from the middle of the shaved back, with sterile biopsy punch resulting in a full-thickness injury. A total of 20 µL of a mid-logarithmic culture, containing 5 × 10^6 CFU P. aeruginosa 27853 were applied on the wound. Then, 15 min after inoculation, about 50 µL of hypromellose gel (prepared as described) containing OAC, antibiotic, or their combination were applied on the skin and covered with a piece of medical tape. As a control, the vehicle (drug-free gel) was similarly applied on the skin. After a treatment period of 4 h, about 8 mm diameter of skin surrounding the infected area was removed, suspended in PBS, homogenized, serially diluted 10-fold, and plated for CFU enumeration. The number of viable bacteria was determined after overnight incubation at 37 °C. The lower limit of detection was 50 CFU/wound. • Thigh infection model (TI): mice were inoculated intramuscularly with 1 × 10^6 CFU/mouse of mid-logarithmic E. coli 25922 and treated subcutaneously 1 and 3 h after inoculation. Mice were sacrificed 24 h after infection, their thighs excised, homogenized, serially diluted 10-fold, and plated for CFU enumeration. The number of viable bacteria was determined after overnight incubation at 37 °C. […] The number of viable bacteria was determined after overnight incubation at 37 °C. […]

**Q.** Which “Sensitization factor (rifampin MIC alone)/(rifampin MIC in combination)” value (Escherichia coli 25922) does the source give for `CCCCC=CCCCCCCCC(=O)N[C@@H](CCCN)C(=O)N[C@@H](CCCN)C(=O)NCCCCCCCCCC(=O)N[C@@H](CCCN)C(N)=O` [C14(ω5)OOc10O] here?
**A.** Its value is 32,000.

**Q.** What about the “Effect on bladder CFU counts” value (E. coli UPEC CFT073; 12.5 mg/kg S.C at 1 and 6 h post-infection, CFU at 24 h) of the same compound?
**A.** The value was “not those of the bladder”.

**Q.** And the “Reduction of kidneys' CFU counts” value (E. coli UPEC CFT073; 12.5 mg/kg S.C at 1 and 6 h post-infection, CFU at 24 h, 10 mice per group, dead control mice not included)?
**A.** Its value is > 2 orders of magnitude.

**Q.** And the “Gap of kidneys' CFU counts with the treated group” value (E. coli UPEC CFT073; as above, if the two dead PBS-treated control mice were taken into consideration)?
**A.** The value was “four”.
